This is an account of results in the supplement of paper PMC12463676, “Small-molecule dissolution of stress granules by redox modulation benefits ALS models” (Nature Chemical Biology, 2025).

Compound in one experiment: O=[As]([O-])(O)O.[K+] [potassium arsenate]
In words: thermal stability z-score vs DMSO; higher = more thermally stabilized by treatment. As to conditions: HeLa; arsenate concentration 1 mM. The method, then: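 Cellular thermal proteome profiling in HeLa cells treated with 1 mM arsenate for 1 h (DMSO pretreatment), heated to ten temperatures (37-66.3 °C). Soluble protein was quantified by TMT mass spectrometry relative to DMSO controls; the thermal stability score was transformed to a z-score; mean of n = 3 experiments.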

Compound in the next experiment: NC(=O)CCCCC1CCSS1 [lipoamide]
The description is as above. As to conditions: HeLa, lipoamide concentration 100 µM. The method, then: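 Cellular thermal proteome profiling in HeLa cells. Cells were treated with 100 µM lipoamide for 1 h, with or without 1 mM arsenate for a further 1 h, then heated to ten temperatures (37-66.3 °C), and soluble protein was quantified by TMT mass spectrometry relative to 0.1% DMSO controls. The thermal stability score (sum of log2 fold changes minus the abundance score) was transformed to a z-score; mean of n = 3 experiments.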

The mark [1] stands for this setting: arsenate co-treatment: 1 mM arsenate 1 h.
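Further: each temperature applied for 3 min, abundance score taken as mean log2 fold change at the two lowest temperatures, z-score obtained by mean subtraction and division by SD.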

UniProt Q15645, sequence (Q15645 whole entry): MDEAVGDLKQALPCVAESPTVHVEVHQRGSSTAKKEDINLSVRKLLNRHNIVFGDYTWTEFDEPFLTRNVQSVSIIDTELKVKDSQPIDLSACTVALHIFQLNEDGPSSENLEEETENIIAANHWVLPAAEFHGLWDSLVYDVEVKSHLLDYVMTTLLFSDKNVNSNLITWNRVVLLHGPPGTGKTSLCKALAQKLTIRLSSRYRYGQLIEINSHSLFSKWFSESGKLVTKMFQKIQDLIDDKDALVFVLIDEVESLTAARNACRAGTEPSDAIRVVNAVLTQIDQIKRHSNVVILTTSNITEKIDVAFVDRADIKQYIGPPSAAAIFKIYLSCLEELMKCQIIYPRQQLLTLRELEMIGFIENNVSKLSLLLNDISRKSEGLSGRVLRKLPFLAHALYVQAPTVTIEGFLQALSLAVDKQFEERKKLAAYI
UniProt O95900, sequence (O95900 whole entry): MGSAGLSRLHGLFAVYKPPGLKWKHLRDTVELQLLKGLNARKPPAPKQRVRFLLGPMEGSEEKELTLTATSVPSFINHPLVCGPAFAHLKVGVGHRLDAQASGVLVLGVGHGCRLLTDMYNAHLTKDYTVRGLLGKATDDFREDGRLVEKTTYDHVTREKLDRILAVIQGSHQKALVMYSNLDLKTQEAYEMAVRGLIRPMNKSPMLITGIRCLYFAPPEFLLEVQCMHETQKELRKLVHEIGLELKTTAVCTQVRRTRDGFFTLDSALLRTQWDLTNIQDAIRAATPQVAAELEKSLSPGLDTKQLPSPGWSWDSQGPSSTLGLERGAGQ
UniProt O00635, sequence (O00635 whole entry): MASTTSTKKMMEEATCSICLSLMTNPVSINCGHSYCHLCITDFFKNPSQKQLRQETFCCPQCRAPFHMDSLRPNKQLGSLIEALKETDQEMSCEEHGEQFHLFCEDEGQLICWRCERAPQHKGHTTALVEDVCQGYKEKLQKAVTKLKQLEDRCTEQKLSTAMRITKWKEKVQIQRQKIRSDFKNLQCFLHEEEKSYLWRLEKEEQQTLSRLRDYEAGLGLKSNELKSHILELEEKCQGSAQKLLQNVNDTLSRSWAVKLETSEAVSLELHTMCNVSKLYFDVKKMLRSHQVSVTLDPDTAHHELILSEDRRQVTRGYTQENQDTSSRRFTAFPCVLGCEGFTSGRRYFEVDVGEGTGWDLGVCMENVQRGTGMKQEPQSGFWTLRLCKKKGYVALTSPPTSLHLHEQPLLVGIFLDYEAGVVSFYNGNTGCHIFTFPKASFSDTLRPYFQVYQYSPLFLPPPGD
UniProt Q32P41, sequence (Q32P41 whole entry): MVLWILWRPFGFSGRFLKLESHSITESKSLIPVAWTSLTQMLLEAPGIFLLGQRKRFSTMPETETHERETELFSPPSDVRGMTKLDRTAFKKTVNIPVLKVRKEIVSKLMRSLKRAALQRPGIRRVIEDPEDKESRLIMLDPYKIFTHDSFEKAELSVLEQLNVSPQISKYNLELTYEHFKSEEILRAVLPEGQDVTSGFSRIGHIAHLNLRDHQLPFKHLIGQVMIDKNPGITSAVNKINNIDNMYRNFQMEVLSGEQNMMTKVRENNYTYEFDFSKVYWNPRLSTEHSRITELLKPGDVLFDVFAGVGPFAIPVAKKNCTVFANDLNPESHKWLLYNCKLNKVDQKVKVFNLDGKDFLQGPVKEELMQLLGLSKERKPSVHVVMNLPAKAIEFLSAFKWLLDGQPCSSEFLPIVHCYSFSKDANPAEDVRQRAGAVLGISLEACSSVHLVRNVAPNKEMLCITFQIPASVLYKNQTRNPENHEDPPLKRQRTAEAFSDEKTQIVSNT
UniProt Q8WWH5, sequence (Q8WWH5 whole entry): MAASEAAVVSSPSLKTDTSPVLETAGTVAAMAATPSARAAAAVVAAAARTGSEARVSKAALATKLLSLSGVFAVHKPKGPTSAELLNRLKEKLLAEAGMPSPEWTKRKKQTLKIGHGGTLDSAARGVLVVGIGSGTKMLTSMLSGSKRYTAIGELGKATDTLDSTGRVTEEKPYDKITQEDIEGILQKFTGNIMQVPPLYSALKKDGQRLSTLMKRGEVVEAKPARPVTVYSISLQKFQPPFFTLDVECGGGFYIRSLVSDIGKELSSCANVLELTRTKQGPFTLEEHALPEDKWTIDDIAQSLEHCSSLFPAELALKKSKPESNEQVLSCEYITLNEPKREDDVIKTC
UniProt Q6PJ69, sequence (Q6PJ69 whole entry): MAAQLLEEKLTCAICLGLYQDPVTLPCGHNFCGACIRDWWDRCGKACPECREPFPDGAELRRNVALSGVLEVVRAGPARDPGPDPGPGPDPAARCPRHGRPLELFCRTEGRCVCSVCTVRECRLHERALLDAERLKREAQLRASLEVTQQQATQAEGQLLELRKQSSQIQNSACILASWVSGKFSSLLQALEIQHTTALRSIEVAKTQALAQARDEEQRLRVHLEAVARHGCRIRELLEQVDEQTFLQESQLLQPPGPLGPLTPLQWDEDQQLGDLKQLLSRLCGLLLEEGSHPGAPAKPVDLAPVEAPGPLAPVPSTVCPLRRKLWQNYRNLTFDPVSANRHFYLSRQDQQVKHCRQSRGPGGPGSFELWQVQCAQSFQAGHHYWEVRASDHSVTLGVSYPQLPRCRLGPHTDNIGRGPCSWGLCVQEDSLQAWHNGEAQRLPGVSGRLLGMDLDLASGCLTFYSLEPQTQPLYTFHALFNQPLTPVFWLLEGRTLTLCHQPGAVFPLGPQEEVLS
UniProt P14373, sequence (P14373 whole entry): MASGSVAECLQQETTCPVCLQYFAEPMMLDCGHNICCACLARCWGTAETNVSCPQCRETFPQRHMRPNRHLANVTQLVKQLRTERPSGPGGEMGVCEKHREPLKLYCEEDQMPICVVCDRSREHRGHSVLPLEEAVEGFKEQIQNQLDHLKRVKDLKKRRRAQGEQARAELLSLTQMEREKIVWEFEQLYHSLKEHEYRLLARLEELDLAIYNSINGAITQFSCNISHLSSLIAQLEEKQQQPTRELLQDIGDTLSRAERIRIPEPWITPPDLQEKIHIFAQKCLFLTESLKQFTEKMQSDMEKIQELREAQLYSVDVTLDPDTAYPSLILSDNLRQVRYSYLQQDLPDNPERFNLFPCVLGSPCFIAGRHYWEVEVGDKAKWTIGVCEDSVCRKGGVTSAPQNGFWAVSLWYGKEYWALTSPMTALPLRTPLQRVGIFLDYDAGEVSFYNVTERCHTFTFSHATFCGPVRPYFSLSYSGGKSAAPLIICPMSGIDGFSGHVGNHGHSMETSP
UniProt Q15654, sequence (Q15654 whole entry): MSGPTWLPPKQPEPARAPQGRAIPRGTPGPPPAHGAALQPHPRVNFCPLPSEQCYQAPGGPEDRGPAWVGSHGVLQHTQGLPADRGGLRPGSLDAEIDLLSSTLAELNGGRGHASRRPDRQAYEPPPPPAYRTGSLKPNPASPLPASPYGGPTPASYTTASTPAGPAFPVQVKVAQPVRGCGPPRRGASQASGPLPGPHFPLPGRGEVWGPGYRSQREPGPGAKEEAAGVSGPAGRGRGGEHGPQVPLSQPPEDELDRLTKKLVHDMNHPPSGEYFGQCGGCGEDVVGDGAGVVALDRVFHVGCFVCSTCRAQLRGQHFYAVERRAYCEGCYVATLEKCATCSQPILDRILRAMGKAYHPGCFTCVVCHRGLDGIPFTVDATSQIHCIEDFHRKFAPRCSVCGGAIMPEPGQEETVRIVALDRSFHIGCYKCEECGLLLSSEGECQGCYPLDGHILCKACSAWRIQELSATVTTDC
UniProt O75648, sequence (O75648 whole entry): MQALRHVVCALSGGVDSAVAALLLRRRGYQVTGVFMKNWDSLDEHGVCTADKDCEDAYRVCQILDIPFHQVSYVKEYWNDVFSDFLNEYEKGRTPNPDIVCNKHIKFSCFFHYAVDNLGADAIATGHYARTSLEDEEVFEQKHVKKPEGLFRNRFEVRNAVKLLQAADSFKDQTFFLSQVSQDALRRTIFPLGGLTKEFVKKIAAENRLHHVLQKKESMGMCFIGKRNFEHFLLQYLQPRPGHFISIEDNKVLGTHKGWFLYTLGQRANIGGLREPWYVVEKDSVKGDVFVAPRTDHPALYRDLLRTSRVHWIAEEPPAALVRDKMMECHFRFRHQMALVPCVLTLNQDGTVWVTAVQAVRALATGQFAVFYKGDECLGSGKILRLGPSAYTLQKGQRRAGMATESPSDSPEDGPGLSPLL
UniProt Q7L0Y3, sequence (Q7L0Y3 whole entry): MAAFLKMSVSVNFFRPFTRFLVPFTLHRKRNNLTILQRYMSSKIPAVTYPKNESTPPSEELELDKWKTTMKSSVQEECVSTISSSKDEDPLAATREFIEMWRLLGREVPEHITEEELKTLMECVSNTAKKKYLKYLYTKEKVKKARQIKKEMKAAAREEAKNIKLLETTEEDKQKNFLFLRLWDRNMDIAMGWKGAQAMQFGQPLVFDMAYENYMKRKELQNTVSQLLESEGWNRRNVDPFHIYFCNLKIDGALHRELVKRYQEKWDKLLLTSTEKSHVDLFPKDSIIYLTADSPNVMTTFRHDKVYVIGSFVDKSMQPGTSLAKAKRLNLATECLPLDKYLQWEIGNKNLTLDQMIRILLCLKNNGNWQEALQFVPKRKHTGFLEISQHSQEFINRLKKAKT
UniProt P10155, sequence (P10155 whole entry): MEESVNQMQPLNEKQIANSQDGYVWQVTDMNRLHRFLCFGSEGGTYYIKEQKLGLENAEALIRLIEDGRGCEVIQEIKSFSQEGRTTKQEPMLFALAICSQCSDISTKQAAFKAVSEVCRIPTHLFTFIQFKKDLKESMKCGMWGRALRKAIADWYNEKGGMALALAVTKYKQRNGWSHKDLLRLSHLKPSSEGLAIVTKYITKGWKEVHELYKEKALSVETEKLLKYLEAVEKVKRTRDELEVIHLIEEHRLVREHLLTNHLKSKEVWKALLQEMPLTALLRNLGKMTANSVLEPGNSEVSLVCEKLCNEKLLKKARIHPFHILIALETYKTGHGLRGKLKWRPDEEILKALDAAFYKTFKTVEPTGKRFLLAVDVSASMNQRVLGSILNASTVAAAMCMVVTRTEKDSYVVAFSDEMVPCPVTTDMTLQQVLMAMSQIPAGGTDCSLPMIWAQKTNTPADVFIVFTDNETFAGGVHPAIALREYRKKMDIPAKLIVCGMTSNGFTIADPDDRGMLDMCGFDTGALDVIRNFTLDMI

Turning to TRIM26 (UniProt Q12899), the thermal stability z-score with potassium arsenate was 0.295; with lipoamide (setting [1]), -0.368; with lipoamide (arsenate co-treatment: none), -0.0684.

For the target TRIM27 (UniProt P14373), the thermal stability z-score is -0.874 in the experiment with potassium arsenate, 0.641 in the experiment with lipoamide (setting [1]) and -0.0794 with lipoamide (arsenate co-treatment: none).

In the case of TRIM28 (UniProt Q13263), the thermal stability z-score is -1.49 with potassium arsenate, -0.138 with lipoamide (setting [1]) and 0.0166 in the experiment with lipoamide (arsenate co-treatment: none).

As to TRIM29 (UniProt Q14134), the thermal stability z-score with potassium arsenate is -0.177; with lipoamide (setting [1]), -0.0886; with lipoamide (arsenate co-treatment: none), 0.185.

With TRIM32 (UniProt Q13049), the values for the thermal stability z-score in the experiment with potassium arsenate, with lipoamide (setting [1]) and in the experiment with lipoamide (arsenate co-treatment: none) were -3.56, -0.257 and -0.125, respectively.

For the target TRIM33 (UniProt Q9UPN9), the thermal stability z-score with potassium arsenate was -0.3; with lipoamide (setting [1]), 0.838; with lipoamide (arsenate co-treatment: none) it was 1.24.

On to TRIM38 (UniProt O00635), for which the thermal stability z-score was -0.447 in the experiment with potassium arsenate, -0.0725 with lipoamide (setting [1]) and -0.0917 in the experiment with lipoamide (arsenate co-treatment: none).

In the case of TRIM44 (UniProt Q96DX7), the thermal stability z-score in the experiment with potassium arsenate was 0.419; with lipoamide (setting [1]), 0.0927; in the experiment with lipoamide (arsenate co-treatment: none) it was -0.409.

As for TRIM47 (UniProt Q96LD4), the thermal stability z-score with potassium arsenate is 0.944; with lipoamide (setting [1]), -0.148; with lipoamide (arsenate co-treatment: none), -0.0936.

For the target TRIM56 (UniProt Q9BRZ2), the figures for the thermal stability z-score with potassium arsenate, in the experiment with lipoamide (setting [1]) and with lipoamide (arsenate co-treatment: none) were -3.98, -0.0694 and -0.839, respectively.

Consider TRIM65 (UniProt Q6PJ69), for which the thermal stability z-score with potassium arsenate was -0.189; with lipoamide (setting [1]), -0.203; with lipoamide (arsenate co-treatment: none) it was -0.225.

With TRIO (UniProt O75962), the thermal stability z-score in the experiment with potassium arsenate was 0.0185; with lipoamide (setting [1]), -0.939; in the experiment with lipoamide (arsenate co-treatment: none), -0.335.

In the case of TRIOBP (UniProt Q9H2D6), the figures for the thermal stability z-score in the experiment with potassium arsenate, in the experiment with lipoamide (setting [1]) and in the experiment with lipoamide (arsenate co-treatment: none) were 0.379, -0.339 and -0.147, respectively.

As for TRIP4 (UniProt Q15650), the thermal stability z-score is -0.932 with potassium arsenate, 0.243 with lipoamide (setting [1]) and 0.422 with lipoamide (arsenate co-treatment: none).

Regarding TRIP6 (UniProt Q15654), the thermal stability z-score is -5.81 with potassium arsenate, -1.35 in the experiment with lipoamide (setting [1]) and -0.966 with lipoamide (arsenate co-treatment: none).

In the case of TRIP10 (UniProt Q15642), the figures for the thermal stability z-score in the experiment with potassium arsenate, with lipoamide (setting [1]) and with lipoamide (arsenate co-treatment: none) were -0.0864, 0.15 and 0.0699, respectively.

Turning to TRIP11 (UniProt Q15643), the figures for the thermal stability z-score with potassium arsenate, with lipoamide (setting [1]) and with lipoamide (arsenate co-treatment: none) were 0.782, -2.35 and -0.484, respectively.

For the target TRIP12 (UniProt Q14669), the thermal stability z-score in the experiment with potassium arsenate is 0.157; with lipoamide (setting [1]), -0.227; with lipoamide (arsenate co-treatment: none), -0.162.

With TRIP13 (UniProt Q15645), the results for the thermal stability z-score with potassium arsenate, in the experiment with lipoamide (setting [1]) and with lipoamide (arsenate co-treatment: none) were -0.184, -0.215 and -0.735, respectively.

As to TRIT1 (UniProt Q9H3H1), the thermal stability z-score with potassium arsenate is 0.0151; in the experiment with lipoamide (setting [1]), -0.0696; with lipoamide (arsenate co-treatment: none) it was -0.0898.

Turning to TRMT1 (UniProt Q9NXH9), the thermal stability z-score in the experiment with potassium arsenate is -0.423; with lipoamide (setting [1]), 0.222; in the experiment with lipoamide (arsenate co-treatment: none), -0.116.

For TRMT1L (UniProt Q7Z2T5), the thermal stability z-score with potassium arsenate was -1.26; with lipoamide (setting [1]), 0.385; with lipoamide (arsenate co-treatment: none) it was 0.0926.

For TRMT2A (UniProt Q8IZ69), the figures for the thermal stability z-score with potassium arsenate, in the experiment with lipoamide (setting [1]) and with lipoamide (arsenate co-treatment: none) were -0.216, -0.235 and -0.172, respectively.

In the case of TRMT5 (UniProt Q32P41), the thermal stability z-score in the experiment with potassium arsenate is -0.112; in the experiment with lipoamide (setting [1]), -0.124; with lipoamide (arsenate co-treatment: none), 0.0028.

Take TRMT6 (UniProt Q9UJA5): the thermal stability z-score with potassium arsenate is 0.0561; in the experiment with lipoamide (setting [1]), 0.481; with lipoamide (arsenate co-treatment: none) it was 0.683.

On to TRMT10A (UniProt Q8TBZ6), for which the thermal stability z-score was 0.266 with potassium arsenate, -0.927 in the experiment with lipoamide (setting [1]) and -0.427 with lipoamide (arsenate co-treatment: none).

With TRMT10C (UniProt Q7L0Y3), the thermal stability z-score was 0.226 in the experiment with potassium arsenate, -0.602 with lipoamide (setting [1]) and -0.191 in the experiment with lipoamide (arsenate co-treatment: none).

Take TRMT11 (UniProt Q7Z4G4): the thermal stability z-score in the experiment with potassium arsenate is -0.518; in the experiment with lipoamide (setting [1]), 0.259; in the experiment with lipoamide (arsenate co-treatment: none) it was -0.151.

For TRMT13 (UniProt Q9NUP7), the thermal stability z-score with potassium arsenate was 0.263; in the experiment with lipoamide (setting [1]), -0.376; in the experiment with lipoamide (arsenate co-treatment: none), -1.34.

As for TRMT61A (UniProt Q96FX7), the thermal stability z-score was -0.0703 in the experiment with potassium arsenate, 1.14 in the experiment with lipoamide (setting [1]) and -1.08 with lipoamide (arsenate co-treatment: none).

Consider TRMT61B (UniProt Q9BVS5), for which the thermal stability z-score was -0.271 with potassium arsenate, -1.22 with lipoamide (setting [1]) and -0.842 with lipoamide (arsenate co-treatment: none).

Consider TRMT112 (UniProt Q9UI30), for which the values for the thermal stability z-score in the experiment with potassium arsenate, with lipoamide (setting [1]) and with lipoamide (arsenate co-treatment: none) were -0.0169, 0.215 and -0.0845, respectively.

Regarding TRMU (UniProt O75648), the thermal stability z-score with potassium arsenate was -0.558; in the experiment with lipoamide (setting [1]), -0.59; in the experiment with lipoamide (arsenate co-treatment: none) it was -0.509.

For TRNT1 (UniProt Q96Q11), the thermal stability z-score is -0.174 with potassium arsenate, 0.00685 with lipoamide (setting [1]) and -0.189 in the experiment with lipoamide (arsenate co-treatment: none).

Regarding TROVE2 (UniProt P10155), the thermal stability z-score was -0.238 in the experiment with potassium arsenate, -0.23 with lipoamide (setting [1]) and -0.235 in the experiment with lipoamide (arsenate co-treatment: none).

Take TRRAP (UniProt Q9Y4A5): the thermal stability z-score with potassium arsenate was -1.16; with lipoamide (setting [1]) it was 0.918; with lipoamide (arsenate co-treatment: none), 0.759.

For the target TRUB1 (UniProt Q8WWH5), the thermal stability z-score is 0.231 with potassium arsenate, -0.102 in the experiment with lipoamide (setting [1]) and 0.175 in the experiment with lipoamide (arsenate co-treatment: none).

TRUB2 (UniProt O95900): the thermal stability z-score was -0.133 with potassium arsenate, 0.00158 in the experiment with lipoamide (setting [1]) and 0.0663 in the experiment with lipoamide (arsenate co-treatment: none).

Regarding TSC1 (UniProt Q92574), the thermal stability z-score with potassium arsenate is -0.0936; with lipoamide (setting [1]) it was 0.103; with lipoamide (arsenate co-treatment: none), -0.0297.

For TSC2 (UniProt P49815), the results for the thermal stability z-score with potassium arsenate, in the experiment with lipoamide (setting [1]) and in the experiment with lipoamide (arsenate co-treatment: none) were 0.0977, 0.021 and -0.0212, respectively.

With TSC22D1 (UniProt Q15714), the thermal stability z-score with potassium arsenate was found to be 0.629; with lipoamide (setting [1]), 0.404; with lipoamide (arsenate co-treatment: none) it was 0.657.

With TSC22D2 (UniProt O75157), the results for the thermal stability z-score in the experiment with potassium arsenate, with lipoamide (setting [1]) and with lipoamide (arsenate co-treatment: none) were 1.16, 1.54 and 0.0633, respectively.
